According to PMC7956625, “Optimization and Anti-Cancer Properties of Fluoromethylketones as Covalent Inhibitors for Ubiquitin C-Terminal Hydrolase L1” (Molecules, 2021):
Where a chain is given by its changes, count along the chain named. Entries after “also recorded” stand apart in the source; their conditions may differ. Where a SMILES comes first, the peptide text is derived from it. The star is where a group is joined. Cbz = O=C(OCc1ccccc1)*; CH2F = FC*

Experiments:
[1] = target: T1, UCHL1 (Homo sapiens, UniProt P09936); assay: Fluorescence-based Ub-Rho deubiquitinase activity assay; type: biochemical; set-up: made in house; details: IC50, after approximately 112 min preincubation
T1 sequence (P09936 1-223): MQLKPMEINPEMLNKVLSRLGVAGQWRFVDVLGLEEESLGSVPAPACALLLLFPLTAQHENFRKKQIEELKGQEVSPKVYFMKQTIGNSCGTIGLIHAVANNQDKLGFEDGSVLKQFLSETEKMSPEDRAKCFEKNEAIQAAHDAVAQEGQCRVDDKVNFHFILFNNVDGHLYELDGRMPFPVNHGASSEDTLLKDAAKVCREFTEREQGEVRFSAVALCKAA

[2] = target: T2, UCHL3 (Homo sapiens, UniProt P15374); assay: KMS cell activity-based probe (HA-Ub-VME) target engagement assay; details: 0–250 µM, 4 h, UCHL3 immunoblot
T2 sequence (P15374 1-230): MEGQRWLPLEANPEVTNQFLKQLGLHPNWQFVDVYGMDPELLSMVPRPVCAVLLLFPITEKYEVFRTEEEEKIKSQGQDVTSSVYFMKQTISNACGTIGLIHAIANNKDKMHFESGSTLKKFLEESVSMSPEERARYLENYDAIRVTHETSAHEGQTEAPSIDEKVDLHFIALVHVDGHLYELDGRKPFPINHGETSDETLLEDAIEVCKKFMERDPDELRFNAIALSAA
Experimental: To confirm on-target engagement in KMS11 cells, a Ub activity-based probe (ABP) gel-shift assay was employed. Using the hemagglutinin-tagged Ub-vinylmethylester (HA-Ub-VME) ABP to examine the activity of 1 in KMS11 cells, an immunoblot was performed. Cells were treated in dose-response with 1 (0–250 µM), washed with PBS, then lysed and treated with HA-Ub-VME. The HA-Ub-VME labels any remaining DUBs that have not been inhibited by 1.
Twelve hours prior to the addition of compounds to the cells, 1.2 million KMS11 or KMS12 cells mL^−1 per well were seeded in a 12 well plate. Cells were incubated with inhibitor for 4 h before washing the cells three time with PBS to remove excess compound. Cells were harvested, pelleted, and lysed in 60 µL of lysis buffer (0.5%NP-40 in 50 mM Tris pH 7.4). HA-Ub-VME was then added to a final concentration of 1 µM and incubated for 1 h at room temperature. An equal volume of 2X Laemmli sample buffer was added, and the samples were heated to 95 °C before separating by gel electrophoresis and analyzed by immunoblot.

[3] = target: T3, UCHL5 (Homo sapiens, UniProt Q9Y5K5); set-up: method as in PMID 22617491; details: concentrations up to 400 µM; cited from earlier work
T3 sequence (Q9Y5K5 1-245 limits assumed): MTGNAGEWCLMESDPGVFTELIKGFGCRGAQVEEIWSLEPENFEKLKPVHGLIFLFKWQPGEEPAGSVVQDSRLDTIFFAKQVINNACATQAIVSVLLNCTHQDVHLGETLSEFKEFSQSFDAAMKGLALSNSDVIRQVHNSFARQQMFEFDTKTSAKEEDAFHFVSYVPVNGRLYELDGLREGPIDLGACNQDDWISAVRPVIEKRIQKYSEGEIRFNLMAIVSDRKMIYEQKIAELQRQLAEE

[4] = target: T2, UCHL3; set-up: His (N); made in house; method as in PMID 22617491; details: concentrations up to 400 µM; cited from earlier work
[5] = tested on: KMS12 cells; assay: KMS cell proliferation assay (IncuCyte); type: cell-based; details: 100 µM; 24 to 96 h; cells do not express UCHL1
Experimental: (§1) The proliferation of KMS11 and KMS12 cells was monitored using an IncuCyte devise (Sartorius, Goettingen, Germany; www.essenbioscience.com, accessed on 31 August 2020). Cells (3 × 10^4 per well; 200 µL) were seeded in triplicate in 96 well plates the night prior to the addition of compounds. The IncuCyte was set to collect images from five fields per well at 4-h intervals by using the nuclear dye Nuclight Red (Sartorius). At each timepoint, the number of cells per well was deter- mined by taking the mean of the five locations in each well. The relative proliferation at each timepoint was normalized, with 100% set as the number of cells observed for incubated with DMSO (0.1%) controls at 72 h.

[6] = tested on: KMS11 cells; assay: KMS cell proliferation assay (IncuCyte); type: cell-based; details: 100 µM; 24, 48, 72 and 96 h
Experimental: as §1

[7] = target: T4, UCHL1 C90A (Homo sapiens, UniProt P09936, C90A); assay: Click reaction and in-gel fluorescence, recombinant protein; type: binding; details: 10 µM inhibitor, 3 h, Cy5-Azide click
T4 construct: His (N); made in house
T4 sequence (P09936 1-223 C90A): T1 sequence (P09936 1-223) with C90A
Experimental: (§2) A common shortcoming to covalent inhibitors is that the reactive electrophilic groups may partake in non-specific labeling of off-target cysteines. To investigate if alternative cysteines are affected on UCHL1 we used analog 34 to confirm that the fluoromethylketone derivatives only conjugate Cys90. […] Additionally, samples were analyzed by mass spectrometry to increase sensitivity for detection of any non-Cys90 adducts. […]
(§3) Solutions containing 1 mg/mL recombinant UCHL1^WT or UCHL1^C90A (from pET15b) (49 µL) was incubated with 10 µM inhibitor for 3 h at room temperature in PBS starting block buffer (Thermo Scientific # 37538). After 3 h, 6 µL of a freshly prepared cocktail was added to each sample, consisting of: 3 µL 1.7 mM THPTA in 1:4 DMSO/tBuOH (100 µM final concentration), 1 µL 50 mM CuSO4 (1 mM final concentration), 1 µL TCEP HCl (25 µM final concentration), and 1 uL Cy5-Azide (#AZ118, Click Chemistry Tools, Scottsdale, AZ, USA; 25 µM final concentration). The samples were allowed to react for 2 h at room temperature protected from light before precipitating the sample by adding 600 µL MeOH, 150 µL chloroform, and 400 µL water, vortexing between each addition. The samples were pelleted by centrifuging at […] for 5 min. […] The samples were then analyzed by SDS-PAGE and imaged on an Odyssey system (LI-COR, Lincoln, NE, USA) and subsequently Coomassie stained.

[8] = target: T5, UCHL1^WT (Homo sapiens, UniProt P09936); assay: as above; type: binding; details: 10 µM inhibitor, 3 h, Cy5-Azide click
T5 construct: His (N); made in house
T5 sequence (P09936 1-223): T1 sequence (P09936 1-223)
Experimental: as §2, §3

SMILES | IC50 [1] [µM] | HA-Ub-UCHL3 complex formation in KMS11 cells [2] | activity toward UCHL5 [3] | activity toward UCHL3 [4] | proliferation of KMS12 cells compared to DMSO [5] | proliferation of KMS11 cells compared to DMSO [6] | covalent adduct with UCHL1 C90A (in-gel fluorescence) [7] | covalent adduct with WT-UCHL1 (in-gel fluorescence) [8]
COC(=O)CC[C@H](NC(=O)[C@H](C)NC(=O)[C@@H](NC(=O)OCc1ccccc1)C(C)C)C(=O)CF [Cpd 1, benzyloxycarbonyl-Val-Ala-Glu(γ-methoxy)-fluoromethylketone] (Cbz-Val-Ala-Glu(OMe)-CH2F) | 29 | does not inhibit UCHL3 in cells | not possess any activity | not possess any activity | showed reduced growth at the 24-h timepoint but regained proliferative ability at the 96-h timepoint | reduced proliferation; also recorded: anti-proliferative properties | – | –
C#Cc1ccc(COC(=O)N[C@H](C(=O)N[C@@H](C)C(=O)N[C@@H](CCC(=O)OC)C(=O)CF)C(C)C)cc1 [Cpd 34] | – | – | – | – | – | – | does not form an adduct; also recorded: no fluorescent bands were observed | forms a covalent adduct with WT-UCHL1; also recorded: formed a covalent adduct
